Columns and labels:
HIV mutant A (Y181C) = experiment: Antiviral cellular assay, mutant HIV strain A; type: cell-based; conditions: EC50 mutant/EC50 wild type, rounded to nearest integer
Protocol: (§1) HIV- or mock-infected MT4 cells were incubated for five days in the presence of various concentrations of the inhibitor. At the end of the incubation period, the replicating virus in the control cultures has killed all HIV-infected cells in the absence of any inhibitor. Cell viability was determined by measuring the concentration of MTT, a yellow, water soluble tetrazolium dye that is converted to a purple, water insoluble formazan in the mitochondria of living cells only. Upon solubilization of the resulting formazan crystals with isopropanol, the absorbance of the solution was monitored at 540 nm. The values correlate directly to the number of living cells remaining in the culture at the completion of the five day incubation. The inhibitory activity of the compound was monitored on the virus-infected cells and was expressed as EC50 and EC90. These values represent the amount of the compound required to protect 50% and 90%, respectively, of the cells from the cytopathogenic effect of the virus. […] Wherever results are reported as e.g. pEC50 or pCC50 values, the result is expressed as the negative logarithm of the result expressed as EC50 or CC50 respectively. […]
(§2) Row WT: pEC50 against wild type HIV-LAI strain. The toxicity (Tox) is expressed as the pCC50 value as determined with mock transfected cells. ND means not determined.

HIV mutant E (F227C) = experiment: Antiviral cellular assay, mutant HIV strain E; type: cell-based; conditions: EC50 mutant/EC50 wild type, rounded to nearest integer
Protocol: as §1, §2

[1] = test system: HIV mutant J (131L, L100I, K103N, E138G, Y181C, L214F); experiment: Antiviral cellular assay, mutant HIV strain J; type: cell-based; conditions: EC50 mutant/EC50 wild type, rounded to nearest integer
Protocol: as §1, §2

HIV-2 = experiment: Antiviral cellular assay, HIV-2; type: cell-based; conditions: Human immunodeficiency virus 2; read-out: pEC50 towards HIV-2 (converted)
Protocol: HIV- or mock-infected MT4 cells were incubated for five days in the presence of various concentrations of the inhibitor. At the end of the incubation period, the replicating virus in the control cultures has killed all HIV-infected cells in the absence of any inhibitor. Cell viability was determined by measuring the concentration of MTT, a yellow, water soluble tetrazolium dye that is converted to a purple, water insoluble formazan in the mitochondria of living cells only. Upon solubilization of the resulting formazan crystals with isopropanol, the absorbance of the solution was monitored at 540 nm. The values correlate directly to the number of living cells remaining in the culture at the completion of the five day incubation. The inhibitory activity of the compound was monitored on the virus-infected cells and was expressed as EC50 and EC90. These values represent the amount of the compound required to protect 50% and 90%, respectively, of the cells from the cytopathogenic effect of the virus. […] Wherever results are reported as e.g. pEC50 or pCC50 values, the result is expressed as the negative logarithm of the result expressed as EC50 or CC50 respectively.
as §2

[2] = test system: HIV mutant D (L100I; K103N); experiment: Antiviral cellular assay, mutant HIV strain D; type: cell-based; conditions: EC50 mutant/EC50 wild type, rounded to nearest integer
Protocol: as §1, §2

[3] = test system: HIV mutant I (K101E, K103N); experiment: Antiviral cellular assay, mutant HIV strain I; type: cell-based; conditions: EC50 mutant/EC50 wild type, rounded to nearest integer
Protocol: as §1, §2

[4] = test system: HIV mutant G (V106A, F227L); experiment: Antiviral cellular assay, mutant HIV strain G; type: cell-based; conditions: EC50 mutant/EC50 wild type, rounded to nearest integer
Protocol: as §1, §2

[5] = test system: HIV mutant C (L100I; K103N); experiment: Antiviral cellular assay, mutant HIV strain C; type: cell-based; conditions: EC50 mutant/EC50 wild type, rounded to nearest integer
Protocol: as §1, §2

[6] = test system: HIV mutant K (multiple RT mutations, Table 1); experiment: Antiviral cellular assay, mutant HIV strain K; type: cell-based; conditions: EC50 mutant/EC50 wild type, rounded to nearest integer
Protocol: as §1, §2

HIV mutant B (K103N) = experiment: Antiviral cellular assay, mutant HIV strain B; type: cell-based; conditions: EC50 mutant/EC50 wild type, rounded to nearest integer
Protocol: as §1, §2

HIV mutant F (Y188L) = experiment: Antiviral cellular assay, mutant HIV strain F; type: cell-based; conditions: EC50 mutant/EC50 wild type, rounded to nearest integer
Protocol: as §1, §2

[7] = test system: SIV (simian immunodeficiency virus); experiment: Antiviral cellular assay, SIV; type: cell-based; conditions: read-out: pEC50 towards SIV (converted)
[8] = test system: HIV mutant H (K103N, Y181C); experiment: Antiviral cellular assay, mutant HIV strain H; type: cell-based; conditions: EC50 mutant/EC50 wild type, rounded to nearest integer
Protocol: as §1, §2

Mycobacterium b. = experiment: Specificity versus non-viral pathogens: Mycobacterium b.; type: cell-based
[9] = target: T1, HIV reverse transcriptase (Human immunodeficiency virus type 1 group M subtype B, UniProt P04585); experiment: In vitro inhibition of HIV reverse transcriptase (kit TRK 1022); type: biochemical; conditions: enzyme assay, 4 hours at 37° C.
T1 construct: 5 μl HIV RT enzyme solution; purchased Amersham Life Sciences TRK 1022
Protocol: The assay was run using kit TRK 1022 (Amersham Life Sciences) according to the manufacturer's instructions with slight modifications. Compounds were diluted in steps of ¼ in 100% DMSO and subsequently transferred to Medium A (1/50 dilution; medium A: RPMI 1640+10% FetalClone II+Gentamycin 20 mg/L). 25 μl of compound (in 2% DMSO in Medium A) or 25 μl of 2% DMSO in medium A was added to wells. To each well was added 25.5 μl master mix (master mix: 5 μl primer/template beads, 10 μl assay buffer, 0.5 μl tracer (3H-TTP), 5 μl HIV RT enzyme solution at a final enzyme activity of 15 mU per 50 μl reaction, 5 μl medium A). The plates were sealed, marked as radioactive and incubated during 4 hours at 37° C. Subsequently, 100 μl stop solution was added to each well (except R1). The radioactivity was counted in a TopCount.

[10] = Microsomal metabolization, human liver microsomes; type: in vitro ADME; conditions: for hepatic first pass metabolization (microsomal): liver microsomal fractions
Protocol: Aliquots of human liver microsomal fractions (prepared by centrifugation at 12000 g^−1) were transferred into 10 ml glass tubes that are immersed in ice. Subsequently, test compound was added to yield a final concentration of 10 μM test compound. After adding 500 μl of a co-factor solution (cofactor solution: 1 mg/ml glucose-6-phosphate, 1 mg/ml MgCl2.6H2O, 0.5 units/ml glucose-6-phosphate dehydrogenase in 0.5 M phohsphate buffer. pH 7.4), homogenisation buffer (homogenisation buffer: 1,15% KCl in 0.05 M phosphate buffer, pH 7.4) was added to give a final volume of 1 ml. The incubations, 30 or 120 minutes at 37° C., were initiated by adding 10 μl of a solution of nicontinamide adenine dinucleotide phosphate (1.25 mg/ml) in homogenisation buffer. After a preincubation during 5 minutes at 37° C., the tubes were continuously shaken at 100 oscillations/minute in a water bath. The reactions were terminated by addition of an equal volume of DMSO. Blank incubations containing boiled microsomal fractions were incubated under the same conditions as the drug incubations. The degree of metabolism was determined by direct measurement of the residual parent compound in the reaction mixture using LC-MS. In parallel, the residual anti-HIV activity in the reaction mixture was detected using a colorimetric anti-HIV assay as described in Pauwels et al. J. Virol. Methods 1988 (20) 309-321. The residual activity is defined as the percent difference in EC50 between the drug incubations and the blank incubations.
The amount of compound was determined using LC-MS at the time points indicated between brackets. The results are indicated as a % vis-à-vis the amount determined at the start of the experiment (time=0; normalized to 100%).

[11] = Microsomal metabolization, dog liver microsomes; type: in vitro ADME; conditions: 10 μM, LC-MS
[12] = test system: HIV-1 strain LAI in MT4 cells; experiment: Time of addition experiment (p24 ELISA); type: cell-based; conditions: 50 μM, MT4 cells infected with HIV-1 LAI
Protocol: A time of addition experiment was performed to determine the mechanism of action of the compounds of the present invention. In the time of addition experiment, compounds are added to cells that were infected with HIV, at time zero (Zero hours). The compounds are subsequently added at different points in time. The time point until which a compound can be added to prevent virus replication, provides an indication of the mechanism of action of the compound.
In the present experiment, MT4 cells were infected with HIV-1 strain LAI at time zero. In different experiments, compounds were subsequently added at the points in time indicated in the X-axis of FIG. 1 (in hours). The compounds were added at the following end concentrations during incubation: DS5000, 1 μM; efavirenz (EFV), 1 μM; saquinavir (SQV), 1 μM; Reference 1, 10 μM (Reference 1 is an integrase inhibitor selected from WO 99/62520 and is present in CAS database: 251963-93-6); Compound 2, 50 μM; Control: normalized virus production. The virus production was determined using p24 monitoring using a kit according to the manufacturers instructions (p24 ELISA kit, catalog reference NEK-050, Perkin Elmer).

wild type HIV-LAI strain = experiment: Antiviral cellular assay (MT4 cells, MTT), wild type HIV-1 strain LAI; type: cell-based; conditions: Human immunodeficiency virus 1, MT4; read-out: EC50, inhibition of wild-type HIV-LAI strain
Protocol: The compounds of the present invention were examined for anti-viral activity in a cellular assay. […] The cellular assay was performed according to the following procedure.
HIV- or mock-infected MT4 cells were incubated for five days in the presence of various concentrations of the inhibitor. At the end of the incubation period, the replicating virus in the control cultures has killed all HIV-infected cells in the absence of any inhibitor. Cell viability was determined by measuring the concentration of MTT, a yellow, water soluble tetrazolium dye that is converted to a purple, water insoluble formazan in the mitochondria of living cells only. Upon solubilization of the resulting formazan crystals with isopropanol, the absorbance of the solution was monitored at 540 nm. The values correlate directly to the number of living cells remaining in the culture at the completion of the five day incubation. The inhibitory activity of the compound was monitored on the virus-infected cells and was expressed as EC50 and EC90. These values represent the amount of the compound required to protect 50% and 90%, respectively, of the cells from the cytopathogenic effect of the virus. The toxicity of the compound was measured on the mock-infected cells and was expressed as CC50, which represents the concentration of compound required to inhibit the growth of the cells by 50%. The selectivity index (SI) (ratio CC50/EC50) is an indication of the selectivity of the anti-HIV activity of the inhibitor. Wherever results are reported as e.g. pEC50 or pCC50 values, the result is expressed as the negative logarithm of the result expressed as EC50 or CC50 respectively.
As a measure of the broad spectrum activity of the present compounds, the EC50 was determined. […] The fold resistance rounded to the nearest integer is mentioned between brackets.
as §2

Row | SMILES | fold resistance mutant A (between brackets) (HIV mutant A (Y181C)) | fold resistance mutant E (between brackets) (HIV mutant E (F227C)) | fold resistance mutant J (between brackets) [1] | EC50 (HIV-2) [nM] | fold resistance mutant D (between brackets) [2] | fold resistance mutant I (between brackets) [3] | fold resistance mutant G (between brackets) [4] | fold resistance mutant C (between brackets) [5] | fold resistance mutant K (between brackets) [6] | fold resistance mutant B (between brackets) (HIV mutant B (K103N)) | fold resistance mutant F (between brackets) (HIV mutant F (Y188L)) | EC50 [7] [nM] | fold resistance mutant H (between brackets) [8] | hepatic first pass metabolization (microsomal) [10] | EC50 (wild type HIV-LAI strain) [nM] | further results
1 | N#Cc1cc2[nH]c3ccccc3c2n(-c2ccc([N+](=O)[O-])cc2)c1=O [Compound 1, 1-(4-nitrophenyl)-2-oxo-2,5-dihydro-1H-pyrido[3,2-b]indole-3-carbonitrile] | 8 | 6 | 5 | 6310 | 3 | 3 | 2 | 8 | 1 | 4 | 4 | 7940 | 5 | – | – | –
2 | Cn1c2ccccc2c2c1cc(C#N)c(=O)n2-c1ccc([N+](=O)[O-])cc1 [Compound 2, 5-methyl-1-(4-nitro-phenyl)-2-oxo-2,5-dihydro-1H-pyrido[3,2-b]indole-3-carbonitrile] | 4 | 3 | 5 | 251 | 2 | 3 | 3 | 3 | 4 | 1 | 2 | 316 | 5 | little or no hepatic first pass metabolization | – | EC50 (Mycobacterium b.): > 32000 nM; in vitro inhibition of HIV reverse transcriptase [9]: inhibits HIV reverse transcriptase in vitro; HLM (0 min) amount of compound ([10]; 10 μM, 0 min, LC-MS, normalized to 100% at time 0): 100%; HLM (30 min) amount of compound ([10]; 10 μM, 30 min, LC-MS, % of amount at time 0): 98%; HLM (120 min) amount of compound ([10]; 10 μM, 120 min, LC-MS, % of amount at time 0): 128%; DLM (0 min) amount of compound ([11]; 0 min, normalized to 100% at time 0): 100%; DLM (30 min) amount of compound ([11]; 30 min, % of amount at time 0): 91%; DLM (120 min) amount of compound ([11]; 120 min, % of amount at time 0): 108%; time of addition: effect on virus production / mechanism [12]: delayed virus production using a mechanism related to reverse transcriptase
3 | N#Cc1cc2c(c3ccccc3n2CCN2CCCC2)n(-c2ccc([N+](=O)[O-])cc2)c1=O [Compound 13, 1-(4-Nitro-phenyl)-2-oxo-5-(2-pyrrolidin-1-yl-ethyl)-2,5-dihydro-1H-pyrido[3,2-b]-indole-3-carbonitrile] | – | – | – | – | – | – | – | – | – | – | – | – | – | little or no hepatic first pass metabolization | < 1000 | –
4 | Cn1c2ccccc2c2c1cc(-c1noc(C(F)(F)F)n1)c(=O)n2-c1ccc([N+](=O)[O-])cc1 [Compound 72, 5-Methyl-1-(4-nitro-phenyl)-3-(5-trifluoromethyl-[1,2,4]oxadiazol-3-yl)-1,5-dihydropyrido[3,2-b]indol-2-one] | – | – | – | – | – | – | – | – | – | – | – | – | – | – | < 1000 | –
5 | Cn1c2ccccc2c2c1cc(C(N)=O)c(=O)n2-c1ccc([N+](=O)[O-])cc1 [Compound 76] | – | – | – | – | – | – | – | – | – | – | – | – | – | – | 1000 to 32000 | –

Reference: patent publication US7608726B2, “Substituted indolepyridinium as anti-infective compounds” (Tibotec Pharmaceuticals Ltd., priority 2002, dated 2009)
